Results on 1 compound are retold here after patent US8986687B2, “Compounds inhibiting CD95 signaling for the treatment of pancreatic cancer” (Deutsches Krebsforschungszentrum, priority 2009, dated 2015).

For the test, the system named is ERK pathway / phosphorylation of ERK. Put plainly: Western blotting of ERK phosphorylation in pancreatic cells. In kind it is cell-based. The settings on record: PANC1 and Colo357 cells. From the text:
Phosphorylation of AKT and ERK is shown in PanD3, PANC1 and Colo357 cells upon treatment with different concentrations of CD95L-T4 at the indicated time points. P: phosphorylated; T: total.
A) Effect of the PI3K and MEK inhibitors (LY2940092 and PD98059 respectively) on CD95-induced phosphorylation of AKT and ERK is shown in PANC1 and Colo357. Inhibition of PI3K enhances ERK phosphorylation. P: phosphorylated; T: total.
It has been known that low concentrations of CD95L are sufficient to efficiently stimulate the non-apoptotic pathways downstream of CD95, being those pathways inhibited by higher concentrations. […]
Knockdown experiments were performed by transient transfection with Lipofectamine 2000™ (Invitrogen Life Technologies) following the instruction manual. […] After transient transfection with the different siRNAs cells were cultured for 72 h before treated with CD95LT4 (20 ng/ml), migration was analyzed 36 h after treatment with a two dimensional migration assay. Knockdown efficiency was controlled by quantitative real-time PCR.
Proteins were transferred from polyacrylamide gels to nitrocellulose membranes by electroblotting. […] The HRP signal was detected by incubation with ECL solution and consecutive exposure to Amersham Hyperfim X-ray films Protein extraction and immunoblotting was performed as previously described. […]
Background: A western blot detects proteins with antibodies after separation by electrophoresis.

Molecules are shown by their SMILES.

For the compound `O=c1cc(N2CCOCC2)oc2c(-c3ccccc3)cccc12` [LY2940092], the “effect of PI3K inhibition on CD95-induced ERK phosphorylation” value is reported as “enhances”.
